According to publication PMC8840742 (Molecules, 2022):
Where two headings read alike, the source gives them in different places.

What was measured:
[1] = system: SARS-CoV-2; test: microbe, parasite or virus in culture; details: Severe acute respiratory syndrome coronavirus 2, 96 h, read-out: SARS-CoV-2 EC50
[2] = system: SARS-CoV-2; details: for SI (CC50/EC50) / anti-SARS-CoV-2 activity in words: VeroE6 cells; for anti-SARS-CoV-2 activity in words: SAR discussion; for potency loss / fold less active relative to compound 8 (SARS-CoV-2): relative to compound 8, VeroE6
[3] = in vitro; details: African green monkey
[4] = system: VeroE6 cells; test: Cytotoxicity in mock-infected VeroE6 cells (MTS assay); details: read-out: MTS CC50; mock-infected VeroE6 cells, MTS assay
[5] = as above; details: African green monkey
[6] = target: SARS-CoV-2 nsp14 (N7-methyltransferase activity) (Severe acute respiratory syndrome coronavirus 2, UniProt P0DTD1); test: Nsp14 RapidFire MS assay; format: biochemical; details: highest tested concentration of 100 µM
[7] = target: cathepsin L (Homo sapiens, UniProt P07711); test: Cathepsin L inhibition; format: biochemical; details: human protease involved in SARS-CoV-2 entry
[8] = system: SARS-CoV-1; test: microbe, parasite or virus in culture; format: cell-based; details: Severe acute respiratory syndrome coronavirus, Vero C1008, read-out: SARS-CoV-1 EC50
[9] = system: SARS-CoV-2 spike pseudotyped VSV; test: organism not typed; format: cell-based; details: Vero C1008, 24 h, read-out: SARS-CoV-2 pseudovirus neutralization EC50 (block of virus entry)
[10] = target: cathepsin B (Homo sapiens, UniProt P07858); test: Cathepsin B inhibition; format: biochemical; details: human protease involved in SARS-CoV-2 entry
[11] = target: SARS-CoV-2 replication–transcription complex (Severe acute respiratory syndrome coronavirus 2, UniProt P0DTD1); test: SARS-CoV-2 polymerase assay; format: biochemical; details: highest tested concentration of 100 µM
[12] = system: MERS-CoV spike pseudotyped VSV; test: organism not typed; format: cell-based; details: Vero C1008, 24 h, read-out: MERS pseudovirus neutralization EC50 (block of virus entry)
[13] = system: MERS-CoV; test: microbe, parasite or virus in culture; format: cell-based; details: Middle East respiratory syndrome-related coronavirus, Huh-7, 42 h, read-out: MERS EC50
[14] = target: SARS-CoV-2 Mpro (Severe acute respiratory syndrome coronavirus 2, UniProt P0DTD1); test: SARS-CoV-2 main protease (Mpro) FRET assay; format: biochemical; details: highest tested concentration of 100 µM
Description: Compounds were tested in a Förster resonance energy transfer (FRET) assay for inhibition of the SARS-CoV-2 Mpro. The peptide Dabcyl-KTSAVLQ↓SGFRKM-E(Edans)-NH2 (Biosyntan, Berlin, Germany) (↓ indicates the cleavage site), corresponding to the P7–P6′ residues of the nsp4–nsp5 processing site of the viral polyprotein pp1a/pp1ab, was used as the substrate. Quenching of the Edans fluorescence by the Dabcyl residue was eliminated after cleavage of the scissile bond between P1-Gln and P1′-Ser and the difference in fluorescence emission was measured with a Tecan Spark fluorescence plate reader, operated at an excitation wavelength of 360 nm and an emission wavelength of 460 nm.
Candidate compounds were kept in a DMSO stock solution; the Mpro was in a buffer containing 20 mM HEPES, 120 mM NaCl, 0.4 mM EDTA, 20% glycerol, pH 7.0. DTT (4 mM) was added to the buffer prior to running the assay. Following incubation of 50 nM SARS-CoV-2 Mpro with 100 µM of the candidate compound for 10 min at 37 °C, the reaction was initiated by the addition of 10 µM of the FRET substrate to each well. The final DMSO concentration was <2%.

[15] = system: Chikungunya virus; test: Chikungunya virus antiviral assay in Vero A cells; details: read-out: Chikungunya virus EC50
[16] = in vitro; details: human

Chain of cathepsin L (P07711 114-333): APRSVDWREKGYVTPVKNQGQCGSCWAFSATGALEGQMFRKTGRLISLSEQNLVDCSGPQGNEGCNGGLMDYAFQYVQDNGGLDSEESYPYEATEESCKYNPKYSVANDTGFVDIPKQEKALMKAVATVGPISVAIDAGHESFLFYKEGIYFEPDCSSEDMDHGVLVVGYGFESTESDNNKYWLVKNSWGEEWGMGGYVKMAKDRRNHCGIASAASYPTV

| Molecule | EC50 [1] | SI (CC50/EC50) [2] | CC50 [3] | further results |
| --- | --- | --- | --- | --- |
| Cc1ccncc1-c1noc(-c2ccccc2OC2CCN(C3CCCC3)C2)n1 (stereo not drawn) [Compound 30, 5-[2-(1-Cyclopentylpyrrolidin-3-yl)oxyphenyl]-3-(4-methyl-3-pyridyl)-1,2,4-oxadiazole] | 1.4 ± 1 µM | 33.6 | 47 ± 1 µM |  |
| 5-[2-(1-Cyclopentylpyrrolidin-3-yl)oxyphenyl]-3-(4-pyridyl)-1,2,4-thiadiazole [Compound 49] |  | 2.6 |  | EC50 ([2]; read-out: SARS-CoV-2 EC50): 5.4 ± 2.1 µM; CC50 [4]: 14 ± 1 µM |
| FC(F)(F)c1ccncc1-c1noc(-c2ccccc2OC2CCN(C3CCCC3)C2)n1 (stereo not drawn) [Compound 29, 5-[2-(1-Cyclopentylpyrrolidin-3-yl)oxyphenyl]-3-[4-(trifluoromethyl)-3-pyridyl]-1,2,4-oxadiazole] | 3.1 ± 1.3 µM | 8.4 | 26 ± 7 µM |  |
| c1ccc(-c2nc(-c3ccncc3)no2)c(OCC2CCN(CC3CCCC3)C2)c1 (stereo not drawn) [Compound 11, 5-[2-[[1-(Cyclopentylmethyl)pyrrolidin-3-yl]methoxy]phenyl]-3-(4-pyridyl)-1,2,4-oxadiazole] | 40 ± 14 µM |  | > 50 µM | fold less active than compound 10 (SARS-CoV-2) ([2]; relative to compound 10, VeroE6): 20 fold |
| c1ccc(CCN2CC[C@H](Oc3ccccc3-c3nc(-c4ccncc4)no3)C2)cc1 [Compound 1b, 5-[2-[(3S)-1-(2-Phenylethyl)pyrrolidin-3-yl]oxyphenyl]-3-(4-pyridyl)-1,2,4-oxadiazole] | 1.4 ± 0.1 µM | 12.8 | 18 ± 11 µM |  |
| c1cncc(-c2noc(-c3ccccc3OC3CCN(C4CCCC4)C3)n2)c1 (stereo not drawn) [Compound 23, 5-[2-(1-Cyclopentylpyrrolidin-3-yl)oxyphenyl]-3-(3-pyridyl)-1,2,4-oxadiazole] | 8.4 ± 5.7 µM | >6 | > 50 µM | anti-SARS-CoV-2 activity in words [2]: equipotent to 8 |
| c1ccc(CCN2CC[C@@H](Oc3ccccc3-c3nc(-c4ccncc4)no3)C2)cc1 [Compound 1a, 5-[2-[(3R)-1-(2-Phenylethyl)pyrrolidin-3-yl]oxyphenyl]-3-(4-pyridyl)-1,2,4-oxadiazole] | 3.6 ± 1.8 µM | 8.1 | 29 ± 24 µM |  |
| c1ccc(-c2nc(-c3ccncc3)no2)c(OC2CCN(C3CCCC3)C2)c1 (stereo not drawn) [Compound 8, 5-[2-(1-Cyclopentylpyrrolidin-3-yl)oxyphenyl]-3-(4-pyridyl)-1,2,4-oxadiazole] | 5.4 ± 3.5 µM | 7.6 | 41 ± 25 µM |  |
| c1ccc(-c2nc(-c3ccncc3)no2)c(OC2CCN(C3CCCC3)CC2)c1 [Compound 12, 5-[2-[(1-Cyclopentyl-4-piperidyl)oxy]phenyl]-3-(4-pyridyl)-1,2,4-oxadiazole] | 1.7 ± 0.5 µM | 27.1 | 46 ± 18 µM |  |
| c1ccc(-c2nc(-c3cncnc3)no2)c(OC2CCN(C3CCCC3)C2)c1 (stereo not drawn) [Compound 24, 5-[2-(1-Cyclopentylpyrrolidin-3-yl)oxyphenyl]-3-pyrimidin-5-yl-1,2,4-oxadiazole] | 15 ± 2 µM | >3.3 | > 50 µM | potency loss / fold less active relative to compound 8 (SARS-CoV-2) [2]: 3 fold |
| c1ccc(-c2nc(-c3ccncc3)no2)c(OCC2CCN(C3CCCC3)C2)c1 (stereo not drawn) [Compound 10, 5-[2-[(1-Cyclopentylpyrrolidin-3-yl)methoxy]phenyl]-3-(4-pyridyl)-1,2,4-oxadiazole] | 1.7 ± 0.3 µM | 15.9 | 27 ± 6 µM |  |
| c1ccc(-c2nc(-c3ccncc3)ns2)c(OC2CCN(C3CCCC3)C2)c1 (stereo not drawn) [Compound 46, 5-[2-(1-Cyclopentylpyrrolidin-3-yl)oxyphenyl]-3-(4-pyridyl)-1,2,4-thiadiazole] | 2.3 ± 0.4 µM | 6.5 |  | CC50 [5]: 15 ± 1 µM |
| c1ccc(-c2nnc(-c3ccncc3)o2)c(OC2CCN(C3CCCC3)C2)c1 (stereo not drawn) [Compound 38, 2-[2-(1-Cyclopentylpyrrolidin-3-yl)oxyphenyl]-5-(4-pyridyl)-1,3,4-oxadiazole] | 15 ± 3 µM | 3.1 | 47 ± 15 µM | potency loss / fold less active relative to compound 8 (SARS-CoV-2) [2]: 3 fold |
| FC(F)(F)c1cncc(-c2noc(-c3ccccc3OC3CCN(C4CCCC4)C3)n2)c1 (stereo not drawn) [Compound 28, 5-[2-(1-Cyclopentylpyrrolidin-3-yl)oxyphenyl]-3-[5-(trifluoromethyl)-3-pyridyl]-1,2,4-oxadiazole] | 2.1 ± 0.1 µM | 4.8 | 10 ± 1 µM |  |
| c1ccc(CCN2CCC(Oc3ccccc3-c3nc(-c4ccncc4)no3)C2)cc1 (stereo not drawn) [Compound 1, 5-(2-((1-Phenethylpyrrolidin-3-yl)oxy)phenyl)-3-(pyridin-4-yl)-1,2,4-oxadiazole] | 4.7 ± 3 µM | 4.5 | 21 ± 11 µM | inhibitory activity on SARS-CoV-2 nsp14 (N7-methyltransferase activity) [6]: did not show any inhibitory activity; activity against cathepsin L [7]: inactive; EC50 [8]: 4.2 ± 0.2 µM; EC50 [9]: 1.25 µM; activity against cathepsin B [10]: inactive; inhibitory activity on SARS-CoV-2 replication–transcription complex [11]: did not show any inhibitory activity; EC50 [12]: 3.4 µM; EC50 [13]: 5 µM; inhibitory activity on SARS-CoV-2 Mpro [14]: did not show any inhibitory activity; EC50 [15]: > 100 µM; CC50 [16]: > 20 µM |
| c1ccc(-c2noc(-c3ccncc3)n2)c(OC2CCN(C3CCCC3)C2)c1 (stereo not drawn) [Compound 35, 3-[2-(1-Cyclopentylpyrrolidin-3-yl)oxyphenyl]-5-(4-pyridyl)-1,2,4-oxadiazole] | 6.2 ± 2.7 µM | 4.8 | 30 ± 12 µM |  |
| c1ccc(-c2nc(-c3ccnnc3)no2)c(OC2CCN(C3CCCC3)C2)c1 (stereo not drawn) [Compound 25, 5-[2-(1-Cyclopentylpyrrolidin-3-yl)oxyphenyl]-3-pyridazin-4-yl-1,2,4-oxadiazole] | > 50 µM |  | > 50 µM | potency loss / fold less active relative to compound 8 (SARS-CoV-2) [2]: more than 10 fold |
| Cc1cnccc1-c1noc(-c2ccccc2OC2CCN(C3CCCC3)C2)n1 (stereo not drawn) [Compound 31, 5-[2-(1-Cyclopentylpyrrolidin-3-yl)oxyphenyl]-3-(3-methyl-4-pyridyl)-1,2,4-oxadiazole] | 1.8 ± 0.3 µM |  | 18 ± 9 µM |  |
| c1ccc(-c2nc(-c3ccncc3)no2)c(OCCNC2CCCC2)c1 [Compound 13, N-[2-[2-[3-(4-Pyridyl)-1,2,4-oxadiazol-5-yl]phenoxy]ethyl]cyclopentanamine] | 8.4 ± 2.5 µM | 5.5 | 46 ± 13 µM |  |
| N#C[C@@]1(c2ccc3c(N)ncnn23)O[C@H](CO)[C@@H](O)[C@H]1O [GS-441524, reference compound] | 0.82 µM |  |  |  |
| CN(CCOc1ccccc1-c1nc(-c2ccncc2)no1)C1CCCC1 [Compound 14, N-Methyl-N-[2-[2-[3-(4-pyridyl)-1,2,4-oxadiazol-5-yl]phenoxy]ethyl]cyclopentanamine] | 8.5 ± 4 µM | 4.4 | 37 ± 11 µM |  |
| c1ccc(-c2nc(-c3ccncc3)no2)c(OC2CCN(CC3CCCC3)C2)c1 (stereo not drawn) [Compound 9, 5-[2-[1-(Cyclopentylmethyl)pyrrolidin-3-yl]oxyphenyl]-3-(4-pyridyl)-1,2,4-oxadiazole] | 1.6 ± 0.8 µM | 15 | 24 ± 8 µM |  |
| c1ccc(-c2noc(-c3ccccc3OC3CCN(C4CCCC4)C3)n2)cc1 (stereo not drawn) [Compound 26, 5-[2-(1-Cyclopentylpyrrolidin-3-yl)oxyphenyl]-3-phenyl-1,2,4-oxadiazole] | > 50 µM | <1 | 9 ± 2.5 µM | anti-SARS-CoV-2 activity in words [2]: showed only cytotoxicity |
| COc1ccc(-c2noc(-c3ccccc3OC3CCN(C4CCCC4)C3)n2)cn1 (stereo not drawn) [Compound 27, 5-[2-(1-Cyclopentylpyrrolidin-3-yl)oxyphenyl]-3-(6-methoxy-3-pyridyl)-1,2,4-oxadiazole] | 4.1 ± 2.2 µM | 4.9 | 20 ± 5.5 µM |  |
